Source: paper PMC3393737 (PLoS ONE, 2012)
Where a name gives a salt, the structure may show the parent alone.

Biological target: T1, ABCB6 (ABCB6-flag) (Homo sapiens, UniProt Q9NP58)
T1 construct: wild-type ABCB6, C-terminal FLAG tag kept; stably expressed (CMV promoter) in K562 cells (whole cells, mitochondria)
T1 sequence (Q9NP58 1-842): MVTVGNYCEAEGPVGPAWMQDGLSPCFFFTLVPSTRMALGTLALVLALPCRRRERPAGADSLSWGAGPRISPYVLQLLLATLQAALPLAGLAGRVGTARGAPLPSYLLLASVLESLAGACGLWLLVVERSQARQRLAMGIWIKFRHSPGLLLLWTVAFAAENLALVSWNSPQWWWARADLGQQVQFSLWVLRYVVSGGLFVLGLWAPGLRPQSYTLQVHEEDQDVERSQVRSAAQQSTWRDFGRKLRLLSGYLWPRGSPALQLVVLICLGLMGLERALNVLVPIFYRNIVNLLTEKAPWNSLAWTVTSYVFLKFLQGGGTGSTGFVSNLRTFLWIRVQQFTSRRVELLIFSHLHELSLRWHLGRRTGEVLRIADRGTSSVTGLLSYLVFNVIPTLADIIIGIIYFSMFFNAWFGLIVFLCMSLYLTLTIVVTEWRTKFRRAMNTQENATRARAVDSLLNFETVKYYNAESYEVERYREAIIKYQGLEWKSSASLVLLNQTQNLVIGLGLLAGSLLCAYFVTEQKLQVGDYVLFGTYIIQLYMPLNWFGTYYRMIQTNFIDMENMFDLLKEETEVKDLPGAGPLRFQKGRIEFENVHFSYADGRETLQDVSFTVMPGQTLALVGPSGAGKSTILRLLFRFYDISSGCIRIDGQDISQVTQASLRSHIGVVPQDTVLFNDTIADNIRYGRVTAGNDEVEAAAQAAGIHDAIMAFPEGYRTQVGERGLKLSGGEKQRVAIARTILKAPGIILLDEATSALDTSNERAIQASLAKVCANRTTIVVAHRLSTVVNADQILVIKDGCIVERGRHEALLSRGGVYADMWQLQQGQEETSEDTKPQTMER
Assay: displacement of ABCB6 from hemin-agarose (mitochondrial fraction; dose dependent also with purified ABCB6-flag)
Assay type: binding

C[C@H]1CC[C@]2(NC1)O[C@H]1C[C@H]3[C@@H]4CC[C@H]5C[C@@H](O[C@@H]6O[C@H](CO)[C@H](O[C@@H]7O[C@H](CO)[C@@H](O)[C@H](O[C@@H]8OC[C@@H](O)[C@H](O)[C@H]8O)[C@H]7O[C@@H]7O[C@H](CO)[C@@H](O)[C@H](O)[C@H]7O)[C@H](O)[C@H]6O)CC[C@]5(C)[C@H]4CC[C@]3(C)[C@H]1[C@@H]2C [THC, tomatine hydrochloride]
inhibition at 5 µM: > 50%
